Results as given in paper PMC5668088, “A phase I clinical trial of binimetinib in combination with FOLFOX in patients with advanced metastatic colorectal cancer who failed prior standard therapy” (Oncotarget, 2017).
Read-outs that look alike come from different tables or passages of the source.

Legend:
[1] = 5-FU plasma pharmacokinetics without and with binimetinib (LC-MS/MS)
Description: Fluorouracil levels in plasma were determined using an LC-MS/MS analytical assay also in the APCF with LLOQ of 3 ng/mL from a 200 μL aliquot of plasma.

[2] = for Oxaliplatin T1/2, Avg STD: Table 4
[3] = human, in vivo, po
Description: A standard 3 + 3 dose-escalation design was followed using a continuous and intermittent oral binimetinib dosing schedule combined with fixed-dose FOLFOX. […] The continuous binimetinib dosing schedule was comprised of 2 dosing levels: 30 mg orally twice daily and 45 mg orally twice daily continuously starting on day 1 with FOLFOX, repeated every 2 weeks. The MTD of binimetinib continuous daily dosing was explored in an additional 6-patient cohort to investigate potential FOLFOX-binimetinib pharmacokinetic interactions. In addition, the MTD dose of binimetinib was explored further with FOLFOX in an intermittent sequential schedule in order to minimize treatment toxicity, with binimetinib twice daily on days 1–5 with FOLFOX on days 6–7 every 2 weeks. The starting dose of binimetinib on the intermittent arm was the MTD dose level identified on the continuous dosing schedule. Following standard dose-escalation rules, the maximum tolerated dose (MTD) for either schedule was defined as the highest dose level tested in which no more than 1 of 6 patients experienced a dose-limiting toxicity (DLT) in the dose-escalation phase. […] No intra-patient dosing escalations were allowed. No escalation beyond the previous binimetinib monotherapy recommended dose of 45 mg PO BID was allowed. […]

MEK1/2 = settings: preclinical; cited from earlier work
[4] = design: method as in ref 19–24 = [19]; 19 Sosman JA Kittaneh M Lolkema MP Postow MA Schwartz G Franklin C Matano A Bhansali S Parasuraman S Kim K A phase 1b/2 study of LEE011 in combination with binimetinib (MEK162) in patients with NRAS-m || [20]; 20 Juric D Soria JC Sharma S Banerji U Azaro A Desai J A phase Ib open-label, multicenter, dose-escalation and-expansion study of orally administered binimetinib (MEK162) plus BYL719 in adult patients || [21]; 21 Chi P Qin L D’Angelo SP Dickson MA Gounder MM Keohan ML Shoushtari AN Condy MM Konen T Fruauff A DeMatteo RP Singer S Hwang S A phase Ib/II study of MEK162 (binimetinib [BINI]) in combination with || [22]; 22 Van Herpen C Postow MA Carlino MS Kalkavan H Weise A Amaria RN De Vos F Carvajal RD Matano A Bhansali S Lam L Yerramilli-Rao P Sosman JA A phase 1b/2 study of ribociclib (LEE011; CDK4/6 inhibitor) || [23]; 23 Dummer R Sandhu S Hassel JC Muñoz E Berking C Gesierich A Ascierto PA Esposito O Carter K Antona V Radhakrishnan R Cui X Caponigro G LOGIC2: Phase 2,multi-center, open-label study of sequential enc; settings: oral twice daily, continuous dosing; five phase Ib/II trials; cited from earlier work
[5] = design: method as in ref 25 = [25]; 25 Grisham RN Gordon MS Harb WA Aghajanian C McMeekin DS McKinley K Anderson L Chavira R Christy-Bittel J Barrett E Moore KN A phase Ib dose-escalation study of binimetinib (MEK162) in combination wit; settings: orally twice daily, cited from earlier work
advanced solid tumors = settings: twice daily, cited from earlier work
[6] = cited from earlier work
previously-treated mCRC = system: previously-treated mCRC; design: method as in ref 34 = [34]; 34 Bendell J Won KT Ean CC Yung-Jue B Lee C Desai J Lewin J Wallin J Das Thakur M Mwawasi G Cha E Infante J Safety and efficacy of cobimetinib (cobi) and atezolizumab (atezo) in a Phase 1b study of me; settings: escalating doses of cobimetinib in combination with atezolizumab; 23 patients (4 responders); cited from earlier work
[7] = Pt#1, Cycle 1 (without binimetinib)
[8] = Pt#2, Cycle 1 (without binimetinib)
[9] = Pt#2, Cycle 2 (with binimetinib)
[10] = Pt#3, Cycle 1 (without binimetinib)
[11] = Pt#3, Cycle 2 (with binimetinib)
[12] = Pt#4, Cycle 1 (without binimetinib)
[13] = Pt#4, Cycle 2 (with binimetinib)
[14] = Pt#5, Cycle 1 (without binimetinib)
[15] = Pt#5, Cycle 2 (with binimetinib)
[16] = Pt#6, Cycle 2 (with binimetinib)

O=c1[nH]cc(F)c(=O)[nH]1 [5-FU, Fluorouracil]
5-FU steady-state level, Avg STD ([1]; Cycle 2 (with binimetinib 45 mg BID continuous), plasma, PK cohort): 597.6 ± 204.5 ng/mL
5-FU steady-state level [1, 7]: 353.0 ng/mL
5-FU steady-state level ([1]; Pt#1, Cycle 2 (with binimetinib)): 293.1 ng/mL
5-FU steady-state level [1, 8]: 524.0 ng/mL
5-FU steady-state level [1, 9]: 480.5 ng/mL
5-FU steady-state level [1, 10]: 627.5 ng/mL
5-FU steady-state level [1, 11]: 718.0 ng/mL
5-FU steady-state level [1, 12]: 427.5 ng/mL
5-FU steady-state level [1, 13]: 770.5 ng/mL
5-FU steady-state level [1, 14]: 621.0 ng/mL
5-FU steady-state level [1, 15]: 726.0 ng/mL
5-FU steady-state level ([1]; Pt#6, Cycle 1 (without binimetinib)): 428.0 ng/mL
Difference in 5-FU PK with vs without binimetinib ([1]; in vivo): no significant differences

O=C1[O][Pt]2([NH][C@@H]3CCCC[C@H]3[NH]2)[O]C1=O [Oxaliplatin]
Oxaliplatin AUC, Avg STD ([2]; Cycle 1 (without binimetinib)): 26580.5 4844.8 μg/L X hr
Oxaliplatin T1/2, Avg STD ([2]; Cycle 1 (without binimetinib)): 37.1 11.7 36
Oxaliplatin AUC, Avg STD ([2]; Cycle 1 (without binimetinib), listed as oxaliplatin): 26580.5 ± 4844.8 μg/L X hr
Oxaliplatin AUC, Avg STD ([2]; Cycle 2 (with binimetinib)): 32190.9 11861.2 μg/L X hr
Oxaliplatin T1/2, Avg STD ([2]; Cycle 2 (with binimetinib)): 38.8 22.6 36
Oxaliplatin AUC, Avg STD ([2]; Cycle 2 (with binimetinib), listed as oxaliplatin): 32190.9 ± 11861.2 μg/L X hr
Oxaliplatin AUC [2, 7]: 28618.0 μg/L X hr
Oxaliplatin Cmax [2, 7]: 536.0 ng/mL
Oxaliplatin AUC [2, 8]: 31146.9 μg/L X hr
Oxaliplatin Cmax [2, 8]: 780.8 ng/mL
Oxaliplatin AUC [2, 9]: 51036.0 μg/L X hr
Oxaliplatin Cmax [2, 9]: 590.0 ng/mL
Oxaliplatin AUC [2, 10]: 25757.7 μg/L X hr
Oxaliplatin Cmax [2, 10]: 686.5 ng/mL
Oxaliplatin AUC [2, 11]: 33953.4 μg/L X hr
Oxaliplatin Cmax [2, 11]: 726.5 ng/mL
Oxaliplatin AUC [2, 12]: 18615.5 μg/L X hr
Oxaliplatin Cmax [2, 12]: 601.5 ng/mL
Oxaliplatin AUC [2, 13]: 25138.7 μg/L X hr
Oxaliplatin Cmax [2, 13]: 748.5 ng/mL
Oxaliplatin AUC [2, 14]: 28764.2 μg/L X hr
Oxaliplatin Cmax [2, 14]: 389.3 ng/mL
Oxaliplatin AUC [2, 15]: 19805.3 μg/L X hr
Oxaliplatin Cmax [2, 15]: 583.5 ng/mL
Oxaliplatin AUC [2, 16]: 31020.9 μg/L X hr
Oxaliplatin Cmax [2, 16]: 671.0 ng/mL
Oxaliplatin average T1/2 ([2]; with binimetinib): 38.8 ± 22.6 h
Oxaliplatin average T1/2 ([2]; without binimetinib): 37.1 ± 11.7 h

Cn1cnc2c(F)c(Nc3ccc(Br)cc3F)c(C(=O)NOCCO)cc21 [binimetinib]
MTD of binimetinib in combination with FOLFOX [3]: 45 mg
Inhibition of MEK and downstream phosphorylated ERK (pERK) (MEK1/2): nanomolar range
MTD or RP2D of binimetinib in combination with various targeted agents [4]: 45 mg
RP2D of binimetinib combined with paclitaxel ([5]; continuous dosing, paclitaxel 80 mg/m^2 weekly 3 out of 4 weeks): 30 mg
RP2D of binimetinib combined with paclitaxel ([5]; intermittent dosing (days 1–5 weekly for 3 out of 4 weeks)): 45 mg
Recommended phase II dose (RP2D) of oral binimetinib (advanced solid tumors; due to recurrent DLTs of retinal events): 45 mg
MTD of single-agent oral binimetinib (advanced solid tumors; pretreated advanced solid tumors, first dose-escalation phase I study): 60 mg
Patients with atrial fibrillation ([6]; in vivo): 1
Patients with irregular heart rate ([6]; in vivo): 1
Patients with grade 1–2 retinal adverse events ([6]; phase II trial, binimetinib 45 mg twice daily, NRAS- or BRAF-mutated advanced melanomas): 18%

O=C(c1ccc(F)c(F)c1Nc1ccc(I)cc1F)N1CC(O)([C@@H]2CCCCN2)C1 [cobimetinib]
Partial responses (previously-treated mCRC): 17%
